In general, IC50 refers to the concentration at which inhibition is half-maximal.

We go through 24 compounds from patent US8119663B2, “Heteroaryl-substituted piperidines” (Bayer Pharma Aktiengesellschaft, priority 2007, dated 2012).

Molecules are shown by their SMILES. Structures can show the parent of a compound that is named as a salt.

The assay addresses T1, human protease activated receptor 1 (PAR1) (Homo sapiens, UniProt P25116).
T1 construct: the cell stably expresses the endogenous human PAR1 receptor and the endogenous purinergic receptor P2Y2; endogenous in cells; host or cells: HEK293-derived recombinant cell line constitutively expressing mitochondrial aequorin
T1 sequence (P25116 22-425): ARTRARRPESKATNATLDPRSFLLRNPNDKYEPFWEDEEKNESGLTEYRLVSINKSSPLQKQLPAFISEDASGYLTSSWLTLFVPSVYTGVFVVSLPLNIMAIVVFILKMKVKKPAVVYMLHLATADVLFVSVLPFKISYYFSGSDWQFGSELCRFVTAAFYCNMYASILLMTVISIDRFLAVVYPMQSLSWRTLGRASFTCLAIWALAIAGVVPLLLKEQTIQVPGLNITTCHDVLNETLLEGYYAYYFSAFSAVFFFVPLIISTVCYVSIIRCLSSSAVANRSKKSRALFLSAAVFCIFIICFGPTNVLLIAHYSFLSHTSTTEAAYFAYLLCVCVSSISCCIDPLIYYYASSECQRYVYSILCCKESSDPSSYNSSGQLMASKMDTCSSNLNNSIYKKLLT
The assay can be described thus: Cellular functional in vitro test (aequorin luminescence, PAR1 test cell). Format: cell-based. As to conditions: recombinant HEK293-derived cell line expressing aequorin; PAR1 agonist added at its EC50 5 minutes after test substance. From the text: 1.a) Cellular Functional In vitro Test
A recombinant cell line is used to identify […] of the human protease activated receptor 1 (PAR1) and to quantify the activity of the substances described herein. The cell is originally derived from a human embryonal kidney cell (HEK293; ATCC: American Type Culture Collection, Manassas, Va. 20108, USA). The test cell line constitutively expresses a modified form of the calcium-sensitive photoprotein aequorin which, after reconstitution with the cofactor coelenterazine, emits light when the free calcium concentration in the inner mitochondrial compartment is increased (Rizzuto R, Simpson A W, Brini M, Pozzan T.; Nature 1992, 358, 325-327). Additionally, the cell stably expresses the endogenous human PAR1 receptor and the endogenous purinergic receptor P2Y2. The resulting PAR1 test cell responds to stimulation of the endogenous PAR1 or P2Y2 receptor with an intracellular release of calcium ions, which can be quantified through resulting aequorin luminescence with a suitable luminometer (Milligan G, Marshall F, Rees S, Trends in Pharmacological Sciences 1996, 17, 235-237).
For testing the substance specificity, its effect after activation of the endogenous PAR1 receptor is compared to the effect after activation of the endogenous purinergic P2Y2 receptor which utilizes the same intracellular signal path.
Test procedure: The cells are plated out two days (48 hours) before the test in culture medium (DMEM F12, supplemented with 10% FCS, 2 mM glutamine, 20 mM HEPES, 1.4 mM pyruvate, 0.1 mg/ml gentamycin, 0.15% Na bicarbonate; BioWhittaker Cat.# BE04-687Q; B-4800 Verviers, Belgium) in 384-well microtitre plates and kept in a cell incubator (96% atmospheric humidity, 5% V/V CO2, 37° C.). On the day of the test, the culture medium is replaced by a tyrode solution (in mM: 140NaCl, 5l KCl, 1MgCl2, 2CaCl2, 20 glucose, 20 HEPES), which additionally contains the cofactor coelenterazine (25 μM) and glutathione (4 mM), and the microtitre plate is then incubated for a further 3-4 hours. The test substances are then pipetted onto the microtitre plate, and 5 minutes after the transfer of the test substances into the wells of the microtitre plate the plate is transferred into the luminometer, a PAR1 agonist concentration which corresponds to the EC50 is added and the resulting light signal is immediately measured in the luminometer. To distinguish an antagonist substance action from a toxic action, the endogenous purinergic receptor is immediately subsequently activated with agonist (ATP, final concentration 10 μM) and the resulting light signal is measured.
Turning to `Cc1noc(C2CC(c3ccc(C(F)(F)F)cc3)CN(C(=O)N3CCOCC3)C2)n1` (single isomer, unassigned) [Example 335, {3-(3-Methyl-1,2,4-oxadiazol-5-yl)-5-[4-(trifluoromethyl)phenyl]piperidin-1-yl}(morpholin-4-yl)-methanone], the IC50 is 25.1 nM.

As for `CN(C)Cc1nc(C2CC(c3ccc(C(F)(F)F)cc3)CN(C(=O)N3CCOCC3)C2)no1` (single isomer, unassigned) [Example 170, {3-{5-[(Dimethylamino)methyl]-1,2,4-oxadiazol-3-yl}-5-[4-(trifluoromethyl)phenyl]piperidin-1-yl}(morpholin-4-yl)methanone hydrochloride], the IC50 came out at 18.8 nM.

With `CN(C)Cc1nnc(C2CC(c3ccc(OC(F)(F)F)cc3)CN(C(=O)N3CCOCC3)C2)o1` (racemic) [Example 470, {3-{5-[(Dimethylamino)methyl]-1,3,4-oxadiazol-2-yl}-5-[4-(trifluoromethoxy)phenyl]piperidin-1-yl}(morpholin-4-yl)methanone], the IC50 came to 4.16 nM.

Turning to `Cc1noc(C2CC(c3ccc(OC(F)(F)F)cc3)CN(C(=O)N3CCOCC3)C2)n1` (single isomer, unassigned) [Example 239, {3-(3-Methyl-1,2,4-oxadiazol-5-yl)-5-[4-(trifluoromethoxy)phenyl]piperidin-1-yl}(morpholin-4-yl)methanone], the IC50 is 5.74 nM.

For the compound `CCc1ccc(C2CC(c3nc(-c4cccc(OC)c4)no3)CN(C(=O)N3CCOCC3)C2)cc1` (racemic) [Example 28, 4-({3-(4-Ethylphenyl)-5-[3-(3-methoxyphenyl)-1,2,4-oxadiazol-5-yl]piperidin-1-yl}carbonyl)-morpholine], the 50% inhibitory concentration (IC50) came to 28 nM.

`COCCc1noc(C2CC(c3ccc(C(F)(F)F)cc3)CN(C(=O)N3CC(O)C3)C2)n1` (single isomer, unassigned) [Example 279]: the IC50 was found to be 14.7 nM.

In the case of `COCCc1noc(C2CC(c3ccc(OC(F)(F)F)cc3)CN(C(=O)N3CCC(O)C3)C2)n1` (stereo not drawn) [Example 420, (3-Hydroxypyrrolidin-1-yl) {3-[3-(2-methoxyethyl)-1,2,4-oxadiazol-5-yl]-5-[4-(trifluoromethoxy)-phenyl]piperidin-1-yl}methanone], the IC50 was found to be 23.8 nM.

Turning to `Cc1ccc(C2CC(c3nc(C(C)C)no3)CN(C(=O)N3CCC(C#N)CC3)C2)cc1C` (racemic) [Example 197, 1-({3-(3,4-Dimethylphenyl)-5-[3-(propan-2-yl)-1,2,4-oxadiazol-5-yl]piperidin-1-yl}carbonyl)-piperidine-4-carbonitrile], the IC50 turned out to be 77.5 nM.

Consider `Cc1cc(C2CC(c3nc(C4CC4)no3)CN(C(=O)N3CCC(O)CC3)C2)ccc1OC(F)(F)F` (racemic) [Example 230, {3-(3-Cyclopropyl-1,2,4-oxadiazol-5-yl)-5-[3-methyl-4-(trifluoromethoxy)phenyl]piperidin-1-yl}(4-hydroxypiperidin-1-yl)methanone], for which the IC50 turned out to be 2.81 nM.

For the compound `O=C(N1CCC(O)C1)N1CC(c2ccc(C(F)(F)F)cc2)CC(c2nc(C3CC3)no2)C1` (stereo not drawn) [Example 146, {3-(3-Cyclopropyl-1,2,4-oxadiazol-5-yl)-5-[4-(trifluoromethyl)phenyl]piperidin-1-yl}(3-hydroxy-pyrrolidin-1-yl)methanone], the concentration for half-maximal inhibition (IC50) came to 9.39 nM.

On to `COCCc1noc(C2CC(c3ccc(C(F)(F)F)cc3)CN(C(=O)N3CCC(O)CC3)C2)n1` (single isomer, unassigned) [Example 276, (4-Hydroxypiperidin-1-yl) {3-[3-(2-methoxyethyl)-1,2,4-oxadiazol-5-yl]-5-[4-(trifluoromethyl)-phenyl]piperidin-1-yl}methanone], for which the IC50 turned out to be 25.3 nM.

As to `CCc1csc(C2CC(c3ccc(OC(F)(F)F)cc3)CN(C(=O)N3CCOCC3)C2)n1` (racemic) [Example 490, {3-(4-Ethyl-1,3-thiazol-2-yl)-5-[4-(trifluoromethoxy)phenyl]piperidin-1-yl}(morpholin-4-yl)-methanone], the IC50 amounted to 25.1 nM.

With `CCc1noc(C2CC(c3ccc(OC(F)(F)F)cc3)CN(C(=O)N3CCC(C#N)CC3)C2)n1` (racemic) [Example 519, 1-({3-(3-Ethyl-1,2,4-oxadiazol-5-yl)-5-[4-(trifluoromethoxy)phenyl]piperidin-1-yl}carbonyl)-piperidine-4-carbonitrile], the IC50 worked out at 20.8 nM.

Take `CCc1ccc(C2CC(c3nc(C(C)(C)C)no3)CN(C(=O)N3CCC(O)CC3)C2)cc1` (racemic) [Example 152]: the IC50 came to 48.1 nM.

Regarding `O=C(N1CCOCC1)N1CC(c2ccc(C(F)(F)F)cc2)CC(c2noc(-c3ccccc3)n2)C1` (racemic) [Example 160, Morpholin-4-yl{3-(5-phenyl-1,2,4-oxadiazol-3-yl)-5-[4(trifluoromethyl)phenyl]piperidin-1-yl}-methanone], the IC50 came to 5.4 nM.

For the compound `O=C(N1CCOCC1)N1CC(c2cccc(C(F)(F)F)c2)CC(c2nc(-c3cc(F)ccc3F)no2)C1` (stereo not drawn) [Example 356], the half-inhibitory concentration (IC50) is 2.73 nM.

Turning to `CC(C)c1nnc(C2CC(c3ccc(OC(F)(F)F)cc3)CN(C(=O)N3CCOCC3)C2)s1` (racemic) [Example 494, Morpholin-4-yl{3-[5-(propan-2-yl)-1,3,4-thiadiazol-2-yl]-5-[4-(trifluoromethoxy)phenyl]piperidin-1-yl}methanone], the IC50 was found to be 5.67 nM.

Regarding `CC(C)c1noc(C2CC(c3ccc(OC(F)(F)F)cc3)CN(C(=O)N3CCC(O)CC3)C2)n1` (single isomer, unassigned) [Example 451, (4-Hydroxypiperidin-1-yl){3-[3-(propan-2-yl)-1,2,4-oxadiazol-5-yl]-5-[4-(trifluoromethoxy)phenyl]piperidin-1-yl}methanone], the IC50 amounted to 19.6 nM.

For the compound `Cc1noc(C2CC(c3ccc(OC(F)(F)F)cc3)CN(C(=O)N3CCC(O)CC3)C2)n1` (single isomer, unassigned) [Example 454, (4-Hydroxypiperidin-1-yl){3-(3-methyl-1,2,4-oxadiazol-5-yl)-5-[4-(trifluoromethoxy)phenyl]piperidin-1-yl}methanone], the IC50 came out at 47.5 nM.

Consider `Cc1ccc(C2CC(c3nc(-c4cccc(F)c4)no3)CN(C(=O)N3CCC(O)CC3)C2)cc1C` (racemic) [Example 232, {3-(3,4-Dimethylphenyl)-5-[3-(3-fluorophenyl)-1,2,4-oxadiazol-5-yl]piperidin-1-yl}(4-hydroxy-piperidin-1-yl)methanone], for which the IC50 was 6.44 nM.

In the case of `CCc1ccc(C2CC(c3nc(CCOC)no3)CN(C(=O)N3CCC(O)CC3)C2)cc1` (racemic) [Example 183, {3-(4-Ethylphenyl)-5-[3-(2-methoxyethyl)-1,2,4-oxadiazol-5-yl]piperidin-1-yl}(4-hydroxy-piperidin-1-yl)methanone], the IC50 was 31.5 nM.

Take `CC(C)(C)c1csc(C2CC(c3ccc(OC(F)(F)F)cc3)CN(C(=O)N3CCOCC3)C2)n1` (racemic) [Example 487, {3-(4-tert-Butyl-1,3-thiazol-2-yl)-5-[4-(trifluoromethoxy)phenyl]piperidin-1-yl}(morpholin-4-yl)-methanone]: the 50% inhibitory concentration (IC50) worked out at 107 nM.

As for `Cc1noc(C2CC(c3ccc(C(F)(F)F)cc3)CN(C(=O)N3CCC(O)CC3)C2)n1` (single isomer, unassigned) [Example 260, (4-Hydroxypiperidin-1-yl){(3-(3-methyl-1,2,4-oxadiazol-5-yl)-5-[4-trifluoromethyl)phenyl]-piperidin-1-yl}methanone], the IC50 was determined as 11.4 nM.

As for `CC(C)(C)c1noc(C2CC(c3ccc(C(F)(F)F)cc3)CN(C(=O)N3CCC(C#N)CC3)C2)n1` (racemic) [Example 283, 1-({3-(3-tert-Butyl-1,2,4-oxadiazol-5-yl)-5-[4-(trifluoromethyl)phenyl]piperidin-1-yl}carbonyl)-piperidine-4-carbonitrile], the IC50 was 14.9 nM.
